pIC50: −log10 of the molar value.
Experiments:
[1] = target: T1, PP1α (PP1CA) (Oryctolagus cuniculus, UniProt P62139); assay: Protein phosphatase test (PP1 activity, DiFMUP fluorescent substrate); type: biochemical; settings: PP1CA at 80 mU, fluorescent substrate (50 μM), molecules from 50 μM to 50 nM; read-out: PP1 Inhibition IC50
T1 construct: purchased New England Biolabs P0754
Summary of the method: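 PP1α (30 or 80 mU) in 100 mM Tris-HCl pH 7.5, 4 mM DTT, 0.2 mM EDTA, 0.5 mM MnCl2 was preincubated 15 min with compound (50 μM to 50 nM), then given 60 μM DiFMUP for 20 min at 37 °C. Phosphatase activity was read as fluorescence at 355-460 nm, three times in duplicate.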

[2] = tested on: bovine brain tubulin; assay: In vitro tubulin polymerization test (turbidimetry at 350 nm); type: biochemical; settings: molecules at 50 μM, calculated at t=3000 s, DMSO control = 100%
Summary of the method: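 Bovine brain tubulin was assembled at 37 °C in BRB80 (80 mM K-PIPES pH 6.8, 1 mM MgCl2, 1 mM EGTA) with 1 mM GTP. The 50 μM tests used compounds at 50 μM, run in triplicate. Turbidity at 350 nm was read at t=3000 s and expressed relative to control taken as 100%.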

[3] = tested on: HMEC cells; assay: Proliferation of HMEC cells (GI50); type: cell-based; settings: Homo sapiens, 120 h, 50 μM to 1 nM for 5 days
Summary of the method: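 Cells seeded at 1,000/well (10% confluence) and exposed 5 days (120 h) to compound from 1 nM up to 50–100 μM. Live cells counted by Hoechst 33342 staining under fluorescence microscopy; GI50 is concentration halving proliferation versus control, mean of two triplicate experiments.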

[4] = tested on: HeLa cells; assay: Indirect immunofluorescence: effect on HeLa cells (mitotic arrest, microtubule depolymerization); type: cell-based, human; design: key to Effect on Hela at 25 μM / Effect on Hela at 100 μM / Effect on Hela at 50 and 100 μM / Effect on Hela at 50 μM: —: −: no activity on the cells at 25 μM (if there is an effect at high concentrations, this is specified in the table).; *: weak activity (MA and/or slight depolymerization of the MTs and/or slight inhibition of proliferation),; **: average activity (MA and/or moderate depolymerization of the MTs and/or moderate inhibition of proliferation),; ***: strong activity (MA and/or pronounced depolymerization of the MTs and/or pronounced inhibition of proliferation),; ****: very strong activity (MA and/or very pronounced depolymerization of the MTs and/or strong inhibition of proliferation); settings: 24 hours; for Effect on Hela at 25 μM: mitotic index and/or depolymerization of the MTs
Summary of the method: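 HeLa cells exposed 24 h to compound (100 μM to 50 nM; primary series 1–10 μM), DMSO controls. PFA/glutaraldehyde-fixed cells immunostained for α-tubulin, actin (phalloidin) and DNA (Hoechst); fluorescence microscopy scored phenotypes and mitotic index, with mitotic index and/or MT depolymerization evaluated at 25 μM.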

[5] = tested on: PP1C; assay: Affinity chromatography on immobilized compound and immunoblotting; type: binding, Xenopus laevis; settings: Xenopus egg extracts; immunoblot anti-PP1C and anti-PP2A; PP2A only traces as in control
Method: Xenopus egg cytoplasmic extracts were prepared from unfertilized Xenopus laevis eggs according to the method described (Desai A et al., Methods Cell Biol. 1999; 61: pp 385-412).
The molecule 37 was immobilized on a sepharose resin activated by an N-hydroxysuccinimide (NHS) group (GE Healthcare #17-0906-01) as follows: 100 μg of the molecule 37 per ml of NHS Sepharose in PBS, pH 8.3, for 1 hour at ambient temperature. The sepharose coupled with molecule 37 was designated “compound 6” resin, whereas in parallel, another “control” resin was produced with incubation in 0.5 M Monoethanolamine (MEA), pH 8.3, under the same conditions, in order to neutralize the NHS functions. After several washings with PBS, pH 8.3, the NHS functions remaining free were blocked with 0.5 M MEA for 30 minutes. Once they had been thoroughly washed with PBS, the “control” and “compound 6” resins were incubated with 1 ml of Xenopus egg extracts diluted 1:1 in CSF-XB buffer containing protease inhibitors (#1 873 580 Roche®), for 1 hour under stirring at 4° C. After 2 washings with PBST, the proteins of the extract remaining attached were eluted with 100 μl of electrophoresis SDS charge buffer (Laemmli, U.K., Cleavage of structural proteins during the assembly of the head of bacteriophage T4. Nature 1970; 227, 680-685) enriched with 6M urea. […]

[6] = tested on: HeLa cells; assay: Comparative tests with INH2BP: antiproliferative activity; type: cell-based, human; settings: 50 μM
Method: The cells were seeded in 96-well plates (1,000 per well) and incubated with different concentrations of compound 6 (1 nM to 100 μM), for 5 days (120 hours). At the end of this incubation, Hoechst 33342 (1 μg/ml) was added to the culture medium and the live cells were counted under a fluorescence microscope (Zeiss Axiovert 200M). The data represents the average of two independent experiments during which 10 fields chosen at random were analyzed for each concentration of compound 6, themselves produced in triplicate.

[7] = trials discontinued; cited from earlier work
[8] = tested on: PP1 and PP2A; settings: cited from earlier work
[9] = due to its structural instability; cited from earlier work

T1 sequence (P62139 whole entry): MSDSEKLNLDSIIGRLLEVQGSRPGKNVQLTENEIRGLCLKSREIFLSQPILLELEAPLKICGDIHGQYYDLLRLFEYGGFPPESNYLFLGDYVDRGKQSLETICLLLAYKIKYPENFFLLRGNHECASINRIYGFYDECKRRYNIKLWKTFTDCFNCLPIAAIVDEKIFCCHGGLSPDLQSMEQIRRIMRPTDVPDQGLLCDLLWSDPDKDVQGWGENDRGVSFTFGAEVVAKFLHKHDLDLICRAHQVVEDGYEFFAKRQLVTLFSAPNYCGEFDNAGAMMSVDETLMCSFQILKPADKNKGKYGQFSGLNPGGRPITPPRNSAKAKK

Row | pIC50 [1] | Compound | Tubulin polymerization inhibition [2] | GI50 [3] [µM] | Effect on Hela at 25 μM [4] | selectivity for PP1 relative to PP2A [8] [times] | other results
1 | < 4.30 | COc1ccc2c([N+](=O)[O-])c(-c3ccc(OCCOCCOCCOCCN)cc3)[nH]c(=O)c2c1 [Compound 37, 3-(4-(2-(2-(2-(2-Aminoethoxy)ethoxy)ethoxy)ethoxy)phenyl)-7-methoxy-4-nitroisoquinolin-1(2H)-one] | — ((−) signifies that the molecule induces little or no tubulin assembly inhibition in vitro: 0+ or − −5% of the DMSO control.) | 25 to 50 | — |  | retention of PP1C by compound immobilized on sepharose resin [5]: specifically retains PP1C
2 | < 4.30 | COC(=O)c1nnn(-c2c(-c3ccc(OC)cc3)[nH]c(=O)c3cc(OC)ccc23)c1C(=O)OC [Compound 48, Dimethyl 1-[7-methoxy-3-(4-methoxyphenyl)-1-oxo-1,2-dihydroisoquinolin-4-yl]-1H-[1,2,3]triazole-4,5-dicarboxylate] | — ((−) signifies that the molecule induces little or no tubulin assembly inhibition in vitro: 0+ or − −5% of the DMSO control.) | 25 to 50 | — |  | Effect on Hela at 50 μM ([4]; 50 μM): *; melting point: 220 °C
3 | < 4.30 | COc1ccc(-c2[nH]c(=O)c3cc(OC)ccc3c2N2CCOCC2)cc1 [Compound 49, 7-Methoxy-3-(4-methoxyphenyl)-4-morpholinoisoquinolin-1(2H)-one] | + ((+) signifies that the molecule induces tubulin assembly inhibition in vitro comprised between 6 and 25% of the DMSO control.) | 0.1 to 1 | ** |  | melting point: 139 °C
4 |  | Nc1ccc2oc(=O)ccc2c1I [INH2BP, 5-iodo-6-amino-1,2-benzopyrone] |  |  |  |  | antiproliferative activity on HeLa cells [6]: no antiproliferative activity
5 |  | C[C@@]12C(=O)OC(=O)[C@]1(C)[C@H]1CC[C@@H]2O1 [cantharidin] |  |  |  |  | toxicity in clinical trials [7]: too-high nephrotoxicity
6 |  | C[C@@](O)(/C=C/[C@H]1CC=CC(=O)O1)[C@@H](C[C@@H](O)\C=C/C=C\C=C\CO)OP(=O)(O)O [fostriecin] |  |  |  |  | selectivity for PP2A ([8]; PP2A relative to PP1): 40,000 times; activity in phase I clinical trial [9]: inactive
7 |  | CO[C@H]([C@H](O)CC(=O)[C@@H](C)[C@@H](O)CC[C@@H](C)[C@@H]1O[C@]2(CC[C@@H](C)[C@H](CC[C@H](C)C(C)=O)O2)CC[C@@H]1C)[C@H](OC(=O)C[C@@H](O)C1=C(C)C(=O)OC1=O)C(C)C [tautomycin] |  |  |  | 4 | 
8 |  | Phosphatidic acid |  |  |  | 100 | 
9 |  | tautomycetin |  |  |  | 40 | 

Source: patent publication US8883763B2 (Universite Joseph Fourier, priority 2010, dated 2014)
